Test in all cases: HIV-1 RT Assay
In test [1] the target is T1, Gag-Pol polyprotein [600-1027,G789A]/[600-1155,G789A] (Human immunodeficiency virus 1, UniProt P03366, G789A).
T1 construct: 600-1027; 600-1155

In test [2] the target is T2, Gag-Pol polyprotein [600-1027,K702N]/[600-1155,K702N] (Human immunodeficiency virus 1, UniProt P03366, K702N).
T2 construct: 600-1027; 600-1155

In test [3] the target is T3, Gag-Pol polyprotein [600-1027,P835L]/[600-1155,P835L] (Human immunodeficiency virus 1, UniProt P03366, P835L).
T3 construct: 600-1027; 600-1155

In test [4] the target is T4, Gag-Pol polyprotein [600-1027,V705A]/[600-1155,V705A] (Human immunodeficiency virus 1, UniProt P03366, V705A).
T4 construct: 600-1027; 600-1155

In test [5] the target is T5, Gag-Pol polyprotein [600-1027,R876K]/[600-1155] (Human immunodeficiency virus 1, UniProt P03366, R876K).
T5 construct: 600-1027; 600-1155

The target of test [6] is T6, Gag-Pol polyprotein [600-1027,Y780C]/[600-1155,Y780C] (Human immunodeficiency virus 1, UniProt P03366, Y780C).
T6 construct: 600-1027; 600-1155

Test [7] has as its target T7, Gag-Pol polyprotein [600-1027,Y787L]/[600-1155,Y787L] (Human immunodeficiency virus 1, UniProt P03366, Y787L).
T7 construct: 600-1027; 600-1155

Molecules are shown by their SMILES. Bounds are passed on as bounds.

From BindingDB's records for doi:10.1021/jm9707028 (Boehringer Ingelheim Pharmaceuticals, 1998) come the findings set out here.

By IC50 is commonly meant the concentration that inhibits the measured activity by half.

`CCN1c2ncc(CCc3ccccc3)cc2C(=O)N(C)c2ccc(Cl)nc21` [2,8-Substituted Dipyridodiazepinone 36]: the IC50 in test [1] amounted to 120 nM; in test [2], 50 nM; in test [3] it was 710 nM; in test [4], 840 nM.

Consider `CCN1c2ncc(CCc3ccncc3)cc2C(=O)N(C)c2ccc(Cl)nc21` [2,8-Substituted Dipyridodiazepinone 37], for which the IC50 in test [1] came to 30 nM; in test [2] it was 120 nM; in test [3], 110 nM; in test [4], 550 nM.

As to `CCN1c2ncc(CCc3ccccc3)cc2C(=O)N(C)c2ccc(-c3ccc[nH]3)nc21` [2-ethyl-9-methyl-13-(2-phenylethyl)-5-(1H-pyrrol-2-yl)-2,4,9,15-tetraazatricyclo[9.4.0.0^{3,8}]pentadeca-1(15),3(8),4,6,11,13-hexaen-10-one], the IC50 was 590 nM in test [5], 520 nM in test [6] and 1280 nM in test [7].

`CCN1c2ncc(CCc3ccncc3)cc2C(=O)N(C)c2cccnc21` [2-ethyl-9-methyl-13-[2-(pyridin-4-yl)ethyl]-2,4,9,15-tetraazatricyclo[9.4.0.0^{3,8}]pentadeca-1(11),3,5,7,12,14-hexaen-10-one]: the results for the IC50 in test [5], in test [6] and in test [7] were 50 nM, 130 nM and more than 1000 nM, respectively.
